Test results as given in ChEMBL document CHEMBL4130353, “2-Substituted 3,7,8-trimethylnaphtho[1,2-b]furan-4,5-diones as specific L-shaped NQO1-mediated redox modulators for the treatment of non-small cell lung cancer” (Eur J Med Chem, 2017).
≈ marks a conversion by molar mass, not a printed value. Calls of active or inactive are those of the source. The rule behind the calls is not given here.

Tests used:
[1] = target: NAD(P)H dehydrogenase [quinone] 1 (Homo sapiens) (UniProt P15559); assay: Substrate activity at recombinant human NQO1 expressed in Escherichia coli assessed as reduction rate by measuring umol of NADPH utilized per umol of enzyme at 10 uM preincubated for 3 mins followed by NADPH addition measured at 2 secs interval for 5 mins by UV-Vis spectroscopy
A549 [2] = assay: Antitumor activity against human A549 cells xenografted in athymic nude mouse assessed as tumor growth inhibition at 50 mg/kg, iv administered every other day for 3 weeks measured every day during compound dosing relative to control; assay type: functional; conditions: 504 h, read-out: TGI
[3] = Intrinsic solubility of the compound; assay type: physicochemical; conditions: read-out: Intrinsic_solubility
[4] = Effective permeability of the compound at pH 7.4 by PAMPA assay; assay type: ADME; conditions: read-out: Peff
Danio rerio = species on record: Danio rerio; assay: Hepatotoxicity in 48 hrs post fertilized transgenic liver zebrafish larvae model expressing LFABP:EGFP protein at 1 uM measured after 48 hrs post dose by fluorescence based assay; assay type: organism-based; conditions: in vivo
[5] = target: NAD(P)H dehydrogenase [quinone] 1 (Homo sapiens) (UniProt P15559); assay: Substrate activity at NQO1 in human A549 cells assessed as induction of enzyme-catalyzed ROS production at 10 uM after 1 to 3 hrs by DCFH-DA-based flow cytometry; assay type: cell-based
[6] = target: NAD(P)H dehydrogenase [quinone] 1 (Homo sapiens) (UniProt P15559); assay: Substrate activity at NQO1 in human A549 cells assessed as induction of enzyme-catalyzed lipid peroxidation by measuring MDA equivalents per protein at 10 uM after 24 hrs by TBARS assay; assay type: cell-based
A549 [7] = assay: Antitumor activity against human A549 cells xenografted in athymic nude mouse assessed as tumor growth inhibition at 30 mg/kg, iv administered every other day for 3 weeks measured every day during compound dosing relative to control; assay type: functional; conditions: 504 h, read-out: TGI
[8] = Solubility of the compound in diluted HCl buffer at pH 3; assay type: physicochemical
L02 = assay: Induction of intracellular ROS levels in human L02 cells at 10 uM after 1 to 3 hrs by DCFH-DA-based flow cytometry; assay type: cell-based; conditions: l02, 10 µM
[9] = target: T1, NADPH--cytochrome P450 reductase (Homo sapiens, UniProt P16435); assay: Substrate activity at human CPR expressed in baculovirus expression system assessed as reduction rate by measuring umol of NADPH utilized per umol of enzyme at 10 uM preincubated for 3 mins followed by NADPH addition measured at 2 secs interval for 5 mins by UV-Vis spectroscopy; assay type: ADME
T1 sequence (P16435 whole entry): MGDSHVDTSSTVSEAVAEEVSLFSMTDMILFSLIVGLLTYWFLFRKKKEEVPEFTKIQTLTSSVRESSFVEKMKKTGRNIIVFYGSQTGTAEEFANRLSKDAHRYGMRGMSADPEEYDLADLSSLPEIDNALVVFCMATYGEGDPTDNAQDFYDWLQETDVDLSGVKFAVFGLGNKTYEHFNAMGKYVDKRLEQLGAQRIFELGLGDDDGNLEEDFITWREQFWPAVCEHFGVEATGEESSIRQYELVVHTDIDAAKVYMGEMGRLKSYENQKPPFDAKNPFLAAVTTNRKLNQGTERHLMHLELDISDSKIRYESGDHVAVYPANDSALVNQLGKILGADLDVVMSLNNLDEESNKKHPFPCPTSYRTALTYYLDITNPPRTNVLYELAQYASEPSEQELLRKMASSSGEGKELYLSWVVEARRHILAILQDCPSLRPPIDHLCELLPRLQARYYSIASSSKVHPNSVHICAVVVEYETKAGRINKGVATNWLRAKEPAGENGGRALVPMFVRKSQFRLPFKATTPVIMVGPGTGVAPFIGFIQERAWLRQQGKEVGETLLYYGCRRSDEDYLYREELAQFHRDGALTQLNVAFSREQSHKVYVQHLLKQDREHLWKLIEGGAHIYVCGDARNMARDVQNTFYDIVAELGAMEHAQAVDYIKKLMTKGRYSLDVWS

[10] = Lipophilicity, log D of the compound at pH 7.4; assay type: physicochemical; conditions: buffer
Homo sapiens = species on record: Homo sapiens; assay: Selectivity ratio for substrate activity at recombinant human NQO1 to substrate activity at human CPR
A549/TR = assay: Cytotoxicity against human A549/TR cells assessed as cell growth inhibition preincubated for 24 hrs followed by compound washout measured after 72 hrs by MTT assay; assay type: functional, cell-based

NAD(P)H dehydrogenase [quinone] 1 (Homo sapiens), sequence (P15559 whole entry): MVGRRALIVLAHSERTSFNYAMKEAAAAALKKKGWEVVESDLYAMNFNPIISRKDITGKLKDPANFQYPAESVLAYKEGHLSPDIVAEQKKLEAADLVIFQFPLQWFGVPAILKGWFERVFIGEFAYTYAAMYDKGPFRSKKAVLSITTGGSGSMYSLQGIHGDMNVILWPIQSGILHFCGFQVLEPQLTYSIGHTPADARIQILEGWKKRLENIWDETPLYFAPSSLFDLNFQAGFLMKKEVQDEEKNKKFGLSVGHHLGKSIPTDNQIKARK

Row | Structure (SMILES) | Activity [1] [µmol/min] | solubility [3] [µg/mL] | solubility [8] [µg/mL] | further results
1 | Cc1cc2c(cc1C)-c1oc(C(=O)Nc3ccc(F)cc3)c(C)c1C(=O)C2=O | 1260 | – | – | –
2 | COc1ccccc1NCc1oc2c(c1C)C(=O)C(=O)c1cc(C)c(C)cc1-2 | 1040 | – | – | –
3 | Cc1cc2c(cc1C)-c1oc(CNCc3ccc(F)cc3)c(C)c1C(=O)C2=O | 1200 | – | – | –
4 | Cc1cc2c(cc1C)-c1oc(CNc3ccc(Br)cc3)c(C)c1C(=O)C2=O | 1150 | – | – | –
5 | Cc1cc2c(cc1C)-c1oc(CNc3ccc(F)cc3F)c(C)c1C(=O)C2=O | 1180 | – | – | –
6 | CC1(C)CCC2=C(O1)c1ccccc1C(=O)C2=O [LAPACHONE] | – | 38 (≈ 157 µM) | < 100 | inhibition in vivo at 50 mg/kg (A549 [2]): 84.9%; Papp [4]: 46.4 ×10⁻⁶ cm/s; Activity (Danio rerio): Toxic; Activity [5]: Active; Activity [6]: 15.9 nmol/mg; inhibition in vivo at 30 mg/kg (A549 [7]): 78.5%; Activity (L02): Toxic
7 | Cc1cc2c(cc1C)-c1oc(CNc3ccc(Cl)c(Cl)c3)c(C)c1C(=O)C2=O | 847 | – | – | –
8 | Cc1cc2c(cc1C)-c1oc(CNc3ccc(F)cc3)c(C)c1C(=O)C2=O | 1330 | 48.5 (≈ 133 µM) | 100 to 500 (≈ 275 to 1380 µM) | Activity [9]: 105 µmol NADPH/min/µmol enzyme; Papp [4]: 42 ×10⁻⁶ cm/s; logD [10]: 4.03; Selectivity ratio (Homo sapiens): 12.7
9 | COc1cccc(NCc2oc3c(c2C)C(=O)C(=O)c2cc(C)c(C)cc2-3)c1 | 955 | – | – | –
10 | Cc1cc2c(cc1C)-c1oc(CN3CCN(c4ccc(F)cc4)CC3)c(C)c1C(=O)C2=O | 1460 | 151 (≈ 349 µM) | 500 to 1000 (≈ 1160 to 2310 µM) | Activity [9]: 159 µmol NADPH/min/µmol enzyme; Papp [4]: 28.3 ×10⁻⁶ cm/s; logD [10]: 2.89; Selectivity ratio (Homo sapiens): 9.19
11 | Cc1cc2c(cc1C)-c1oc(CN3CCN(Cc4ccccc4)CC3)c(C)c1C(=O)C2=O | 1190 | – | – | –
12 | Cc1cc2c(cc1C)-c1oc(CNc3ccc(F)cc3C)c(C)c1C(=O)C2=O | 1320 | 33.1 (≈ 87.7 µM) | < 100 | Activity [9]: 127 µmol NADPH/min/µmol enzyme; logD [10]: 3.31; Selectivity ratio (Homo sapiens): 10.3
13 | Cc1cc2c(cc1C)-c1oc(C(=O)NCc3ccc(F)cc3)c(C)c1C(=O)C2=O | 1290 | – | – | –
14 | CC(=O)O[C@H]1C(=O)[C@@]2(C)[C@H]([C@H](OC(=O)c3ccccc3)[C@]3(O)C[C@H](OC(=O)[C@H](O)[C@@H](NC(=O)c4ccccc4)c4ccccc4)C(C)=C1C3(C)C)[C@]1(OC(C)=O)CO[C@@H]1C[C@@H]2O [PACLITAXEL] | – | – | – | IC50 (A549/TR): 28 µM
15 | Cc1cc2c(cc1C)-c1oc(CNc3ccc(Cl)cc3Cl)c(C)c1C(=O)C2=O | 1060 | – | – | –
16 | Cc1cc2c(cc1C)-c1oc(C(=O)N3CCN(Cc4ccccc4)CC3)c(C)c1C(=O)C2=O | 1360 | 41.1 (≈ 92.9 µM) | 100 to 500 (≈ 226 to 1130 µM) | Activity [9]: 90 µmol NADPH/min/µmol enzyme; Papp [4]: 11.9 ×10⁻⁶ cm/s; logD [10]: 4.82; Selectivity ratio (Homo sapiens): 15.1
17 | Cc1cc2c(cc1C)-c1oc(CN3CCN(c4ccccc4)CC3)c(C)c1C(=O)C2=O | 1050 | – | – | –
18 | COc1ccc(NCc2oc3c(c2C)C(=O)C(=O)c2cc(C)c(C)cc2-3)cc1 | 1120 | – | – | –
19 | Cc1cc2c(cc1C)-c1oc(CNc3ccc(F)c(Cl)c3)c(C)c1C(=O)C2=O | 940 | – | – | –
20 | Cc1cc2c(cc1C)-c1oc(CNc3ccc(C#N)cc3)c(C)c1C(=O)C2=O | 898 | – | – | –
21 | Cc1cc2c(cc1C)-c1oc(C(=O)N3CCN(c4ccc(F)cc4)CC3)c(C)c1C(=O)C2=O | 1190 | – | – | –
22 | Cc1cc2c(cc1C)-c1occ(C)c1C(=O)C2=O | – | 28.6 (≈ 119 µM) | < 100 | Activity [9]: 142 µmol NADPH/min/µmol enzyme; Papp [4]: 43.1 ×10⁻⁶ cm/s; logD [10]: 3.65
23 | Cc1cc2c(cc1C)-c1oc(CNc3cccc(F)c3)c(C)c1C(=O)C2=O | 1340 | 51.2 (≈ 141 µM) | 100 to 500 (≈ 275 to 1380 µM) | Activity [9]: 112 µmol NADPH/min/µmol enzyme; Papp [4]: 66.2 ×10⁻⁶ cm/s; logD [10]: 4.21; Selectivity ratio (Homo sapiens): 12
